Results taken from US11364225B2, “Pharmaceutical formulation for treating symptoms of migraine and cluster headaches, and method of using the same” (BN INTELLECTUAL PROPERTIES, INC., priority 2019, dated 2022).
Like-named read-outs stand apart in the source and are kept apart here.

How the values were obtained:
[1] = cited from earlier work
[2] = Treatment of migraine headache symptoms (pain phase) with an inhaled plume of particles from an active mesh nebulizer; type: in vivo, patient (adult)
Method: In a non-limiting example, an adult with a history of chronic migraine headaches was treated for migraine headache symptoms during the pain phase using an inhaled plume of particles from an active mesh nebulizer as described herein, and as described in U.S. patent application Ser. No. 16/836,485, titled “NEBULIZER FOR TIME-REGULATED DELIVERY”. The person was provided with an active mesh nebulizer containing a solution of sumatriptan succinate in water at 0.1996 weight % (wt %) [e.g., 4 mg sumatriptan succinate in 2 grams of water, such that (0.004 g sumatriptan succinate/2.004 g solution)*100=0.1996 wt % sumatriptan succinate] which produced a plume of particles where over 95% of the particles have individual particle diameters ranging from about 0.5 μm to about 3.0 μm. The active mesh nebulizer was configured to produce a plume of particles by nebulizing the sumatriptan succinate solution at a rate of 0.2 milliliters per minute (ml/min) for one minute, resulting in a patient dose for a first inhalation session (e.g., six 10-second inhaled plume pulses) of not more than 4 mg sumatriptan succinate.
The person had indicated in their medical history that they had regularly experienced migraine headache symptoms, at a frequency of about 3-4 episodes per week, over several months prior to the treatment.

| Structure (SMILES) | relief time (patient relief) ([1]; intra-nasal delivery, according to theory and belief) [min] | relief time (patient relief) ([1]; sub-cutaneous delivery, after injection) [min] | migraine headache symptoms, self-evaluated after treatment ([2]; one adult with chronic migraine, inhaled, 0.1996 wt % solution in water, six 10-second plume pulses, not more than 4 mg, evaluated after waiting 5 minutes) | remission after treatment ([2]; same patient, about 3-4 episodes per week before treatment) | relief time (symptom relief) ([1]; sub-lingual delivery, according to theory and belief) [min] |
| --- | --- | --- | --- | --- | --- |
| CNS(=O)(=O)Cc1ccc2[nH]cc(CCN(C)C)c2c1 [sumatriptan succinate] | 30 to 60 | 60 to 90 | completely abated | more than seven days | – |
| CN(C)CCc1c[nH]c2ccc(C[C@H]3COC(=O)N3)cc12 [zolmitriptan] | – | – | – | – | ≤ 30 |
